Measurements from US12012404B2, “Pyrimidoheterocyclic compounds and application thereof” (D3 BIO (WUXI) CO., LTD., priority 2020, dated 2024).

Tests used:
[1] = Stability assay in plasma, CD-1 mice; format: in vitro ADME; settings: CD-1 mice plasma, 2 μM, 37° C.
Experimental: Purpose of the assay: Stabilities of the assay compounds in plasma of CD-1 mice and human were assayed, respectively.
Procedure of the assay: Cryopreserved plasma was thawed for 10-20 min. After the plasma was completely thawed, it was placed in a centrifuge and centrifuged at 3220×g for 5 min to remove any suspended matter and sediment in the plasma. 96-well incubation plates were prepared and named TO, T10, T30, T60, T120, respectively. 98 μL of blank plasmas of mouse, rat, canine, monkey and human were added to the corresponding incubation plates, then 2 μL of working solutions of the compound or the control compound were added to the corresponding plates in duplicate. All samples were incubated in a 37° C. water bath. The final incubation concentrations of the compound and the control compounds bisacodyl, enalapril maleate, procaine and probanthine were 2 μM, and the final organic phase content was 2.0%. At the end of incubation for each time point, the corresponding incubation plate was removed and 400 μL of a solution of 200 ng/mL of tolbutamide and labetalol in acetonitrile was added to each corresponding sample well to precipitate the protein. All sample plates were sealed and shaken well, and then centrifuged at 3220×g for 20 minutes. 50 μL of supernatant was taken out and diluted in 100 μL of ultrapure water. All samples were mixed well and then analyzed by LC/MS/MS.

[2] = system: plasma protein of beagle dogs; test: Protein binding rate by equilibrium dialysis, beagle dogs plasma; format: in vitro ADME; settings: 2 μM, dialysis 4 hours
Experimental: (§1) Purpose of the assay: Protein binding rate of the assay compounds in plasma of CD-1 mice, SD rats, beagle dogs, cynomolgus monkeys and human was determined by equilibrium dialysis.
(§2) Procedure of the assay: Plasma samples with a compound concentration of 2 μM were prepared using plasma of the above five species, placed in a 96-well equilibrium dialysis device, and dialyzed with phosphate buffer solution at 37±1° C. for 4 hours. Warfarin was used as the control compound in this assay. The concentrations of the assay compounds in plasma and dialysis buffer were determined by LC-MS/MS method.

[3] = Stability assay in whole blood, SD rats; format: in vitro ADME; settings: 5 μM, 37° C.
Experimental: Purpose of the assay: Stabilities of the assay compounds in whole blood of CD-1 mice, SD rats, Beagle dogs and cynomolgus monkeys were assayed, respectively.
Procedure of the assay: On the day of the assay or the day before the assay, fresh whole blood from CD-1 mice, SD rats, beagle dogs, and cynomolgus monkeys was collected using anticoagulant EDTA-K2. Prior to the start of the assay, the whole blood was mixed with PBS in 1:1 (v:v) and the mixture was preheated in a 37° C. water bath for 10-20 minutes. […] […] All samples were incubated in a 37° C. water bath. The final incubation concentration of the compound was 5 μM and the final incubation concentration of the control compound was 2 μM. At the end of incubation for each time point, the corresponding incubation plate was removed and 100 μL of ultrapure water was immediately added to the corresponding sample wells, and mixed well. 800 μL of a solution of 200 ng/mL tolbutamide and labetalol in acetonitrile was added to precipitate the protein. The sample plates were sealed and shaken well, and then centrifuged at 3220×g for 20 min. 150 μL of supernatant was taken out and analyzed by LC/MS/MS.

[4] = Protein binding rate by equilibrium dialysis, SD rats plasma; format: in vitro ADME; settings: rat, plasma; SD rats, as listed in PK Table 8; read-out: Plasma protein unbound rate PPB (Unbound %)
Experimental: as §1, §2

[5] = system: KRAS^G12C-mutated MIA-PA-CA-2 cells; test: Inhibition of proliferation of KRAS^G12C-mutated MIA-PA-CA-2 cells (CellTiter-Glo, 72 h); format: cell-based, human; settings: Homo sapiens, MIA PaCa-2, 72 h incubation
Experimental: Compounds were assayed for IC50 of inhibition of proliferation of KRAS^G12C-mutated MIA-PA-CA-2 cells.
The main reagent used in this assay included CellTiter-Glo (Promega, Cat. No. G7573).
The main instrument used in this assay was PerkinElmer EnVision multi-function microplate reader.
1.4 Method of the Assay • 1) Adherent cells were digested with trypsin to form a cell suspension, and the cell suspension was counted for later use. • 2) An appropriate amount of cells was added into a centrifuge tube, and a cell culture medium was added to make up the required volume; then the cells were plated to a 96-well plate at a final density of 2000 cells/well, 100 μL of culture medium. • 3) After incubating for 24 hr, the compound was formulated to 10 mM with DMSO, and serially diluted 3-fold with DPBS (Dulbecco's Phosphate Buffered Saline) to 9 points; 10 μL was added to each well in duplicate. 10 μL of DPBS per well was added to the assay control wells (Con). • 4) On the same day, 50 μL of CellTiter Glo was added to another cell culture plate without compounds, and the fluorescence value was read by EnVision. […] The fluorescence value was read by EnVision. • 6) Data analysis: The inhibition rate of cells in each well was calculated according to the following equation: […]

[6] = Protein binding rate by equilibrium dialysis, CD-1 mice plasma; format: in vitro ADME; settings: CD-1, mouse, plasma; mice, as listed in PK Table 9; read-out: Plasma protein unbound rate PPB (Unbound %)
Experimental: as §1, §2

[7] = system: KRAS^G12C-mutated H358 cells; test: H358 cell assay: inhibition of proliferation (CellTiter-Glo, 5 days); format: cell-based; settings: Homo sapiens, 120 h; NCI-H358 cells, 5 days incubation
Experimental: Compounds were assayed for IC50 of inhibition of proliferation of KRAS^G12C-mutated H358 cells.
The main instrument used in this assay was a Nivo multi-label analyzer (PerkinElmer).
2.4 Method of the Assay: • 1) NCI-H358 cells were inoculated in a white 96-well plate, and each well contained 80 μL of cell suspension and 4000 NCI-H358 cells. […] The assay was carried out in duplicate. 78 μL of medium was added to the intermediate plate, and then 2 μL of the serially diluted compound was transferred to each well of the intermediate plate according to the corresponding position. After mixing well, 20 μL per well was transferred to the cell plate. […] The cell plate was incubated in a carbon dioxide incubator for 5 days. Another cell plate was prepared, and the signal value of the cell plate was read on the day of compound addition as the maximum value (Max value in the equation below) to participate in data analysis. 25 μL of cell viability chemiluminescence detection reagent was added to each well of the cell plate, and the plate was incubated at room temperature for 10 minutes to stabilize the luminescence signal. A multi-label analyzer was used for reading the plate. • 3) […]

Row | Structure (SMILES) | Detection of assay compound content within 120 min [1] | Protein unbound rate [2] | Detection of assay compound content within [3] | fraction unbound at 4 h, 2 μM [4] | IC50 [5] | fraction unbound at 4 h, 2 μM [6] | IC50 [7]
1 | C=C(F)C(=O)N1CCN(c2nc(OCC3CCCN3C)nc3c2COC(c2c(F)c(N)cc(C)c2C(F)(F)F)C3)CC1CC#N.Cl (single isomer, unassigned) [Compound 8B hydrochloride] | 110% | 6.0 | 104% | – | – | – | –
2 | C=C(F)C(=O)N1CCN(c2nc(OC[C@@]34CCCN3C[C@H](F)C4)nc3c2COC(c2c(F)c(N)cc(C)c2C(F)(F)F)C3)C[C@@H]1CC#N (stereo partly shown) [Compound 17] | 94% | 3.3 | 115% | 0.048 | 0.44 nM | 0.0154 | 0.6 nM
